From ChEMBL document CHEMBL3885881, “DrugMatrix”

Organism: Rattus norvegicus
Test: DrugMatrix - Regimen: Daily Repeat
Type: toxicity, organism-based, Sprague-Dawley
Set-up: regimen Daily Repeat, gender Male, age 6-8 weeks
Conditions: in vivo, po, route oral GAVAGE, vehicle .5 % CMC; for ABSOLUTE BASOPHIL / ABSOLUTE EOSINOPHIL / ABSOLUTE LYMPHOCYTE / ABSOLUTE MONOCYTE / ABSOLUTE SEGMENTED NEUTROPHIL / BASOPHIL / EOSINOPHIL / ERYTHROCYTE COUNT / HEMATOCRIT / HEMOGLOBIN / LEUKOCYTE COUNT / LYMPHOCYTE / MEAN CORPUSCULAR HEMOGLOBIN / MEAN CORPUSCULAR HEMOGLOBIN CONCENTRATION / MEAN CORPUSCULAR VOLUME / MONOCYTE / NEUTROPHIL / NUCLEATED RED BLOOD CELLS / PLATELET COUNT: tissue Blood; for ALANINE AMINOTRANSFERASE / ALBUMIN / ALKALINE PHOSPHATASE / ASPARTATE AMINOTRANSFERASE / BLOOD UREA NITROGEN / CARBON DIOXIDE / CHLORIDE / CHOLESTEROL / CREATINE PHOSPHOKINASE / CREATININE / GLUCOSE / LACTATE DEHYDROGENASE / LIPASE / PHOSPHORUS / POTASSIUM / SODIUM / TOTAL BILIRUBIN / TOTAL PROTEIN / URIC ACID: tissue Plasma
[1] = 0 mg/kg, 72 h, dose level Control, time 3 day
[2] = 0 mg/kg, 120 h, dose level Control, time 5 day
[3] = 15 mg/kg, 72 h, dose level Low, time 3 day
[4] = 15 mg/kg, 120 h, dose level Low, time 5 day

For `C[C@@H]1O[C@@H](O[C@H]2C[C@@H](O)[C@]3(CO)[C@H]4[C@H](O)C[C@]5(C)[C@@H](C6=CC(=O)OC6)CC[C@]5(O)[C@@H]4CC[C@]3(O)C2)[C@H](O)[C@H](O)[C@H]1O` [OUABAIN], the “ABSOLUTE BASOPHIL” value [1] was 0 CELLS/uL, the “ABSOLUTE EOSINOPHIL” value [1] was 130.33 CELLS/uL and the “ABSOLUTE LYMPHOCYTE” value [1] was 10030.67 CELLS/uL. The “ABSOLUTE MONOCYTE” value [1] was 41 CELLS/uL, the “ABSOLUTE SEGMENTED NEUTROPHIL” value [1] was 1298 CELLS/uL and the BASOPHIL [1] was 0%. For the same molecule, the EOSINOPHIL [1] was 1%, the “ERYTHROCYTE COUNT” value [1] was 5.22 x10E6/uL and the HEMATOCRIT [1] was 33.53%. The HEMOGLOBIN [1] was 12.73 G/DL, the “LEUKOCYTE COUNT” value [1] was 11.5 x10E3/uL and the LYMPHOCYTE [1] was 87.67%. The “MEAN CORPUSCULAR HEMOGLOBIN” value [1] was 24.45 pg, the “MEAN CORPUSCULAR HEMOGLOBIN CONCENTRATION” value [1] was 37.97 G/DL and the “MEAN CORPUSCULAR VOLUME” value [1] was 64.33 fL. The MONOCYTE [1] was 0.33%, the NEUTROPHIL [1] was 11% and the “NUCLEATED RED BLOOD CELLS” value [1] was 0 /100WBC. For the same molecule, the “PLATELET COUNT” value [1] was 1310.5 x10E3/uL, the “ALANINE AMINOTRANSFERASE” value [1] was 52 u/L and the ALBUMIN [1] was 4.22 G/DL. The “ALKALINE PHOSPHATASE” value [1] was 340.17 u/L, the “ASPARTATE AMINOTRANSFERASE” value [1] was 87.5 u/L and the “BLOOD UREA NITROGEN” value [1] was 15.17 mg/dL. For the same molecule, the “CARBON DIOXIDE” value [1] was 25.5 mmol/L, the CHLORIDE [1] was 101.83 MEQ/L and the CHOLESTEROL [1] was 68.17 mg/dL. The “CREATINE PHOSPHOKINASE” value [1] was 379.67 u/L, the CREATININE [1] was 0.17 mg/dL and the GLUCOSE [1] was 181.67 mg/dL. For the same molecule, the “LACTATE DEHYDROGENASE” value [1] was 256.17 u/L, the LIPASE [1] was 8 u/L and the PHOSPHORUS [1] was 12.1 mg/dL. The POTASSIUM [1] was 5.88 MEQ/L, the SODIUM [1] was 143.67 MEQ/L and the “TOTAL BILIRUBIN” value [1] was 0.18 mg/dL. For the same molecule, the “TOTAL PROTEIN” value [1] was 5.92 G/DL, the “URIC ACID” value [1] was 1.7 mg/dL and the “ABSOLUTE BASOPHIL” value [2] was 0 CELLS/uL. The “ABSOLUTE EOSINOPHIL” value [2] was 31 CELLS/uL, the “ABSOLUTE LYMPHOCYTE” value [2] was 9599.17 CELLS/uL and the “ABSOLUTE MONOCYTE” value [2] was 52.83 CELLS/uL. For the same molecule, the “ABSOLUTE SEGMENTED NEUTROPHIL” value [2] was 1050.33 CELLS/uL, the BASOPHIL [2] was 0% and the EOSINOPHIL [2] was 0.33%. For the same molecule, the “ERYTHROCYTE COUNT” value [2] was 5.53 x10E6/uL, the HEMATOCRIT [2] was 35.8% and the HEMOGLOBIN [2] was 13.53 G/DL. The “LEUKOCYTE COUNT” value [2] was 10.73 x10E3/uL, the LYMPHOCYTE [2] was 89% and the “MEAN CORPUSCULAR HEMOGLOBIN” value [2] was 24.47 pg. The “MEAN CORPUSCULAR HEMOGLOBIN CONCENTRATION” value [2] was 37.82 G/DL, the “MEAN CORPUSCULAR VOLUME” value [2] was 64.7 fL and the MONOCYTE [2] was 0.5%. The NEUTROPHIL [2] was 10.17%, the “NUCLEATED RED BLOOD CELLS” value [2] was 0 /100WBC and the “PLATELET COUNT” value [2] was 1028.5 x10E3/uL. For the same molecule, the “ALANINE AMINOTRANSFERASE” value [2] was 45.33 u/L, the ALBUMIN [2] was 4.33 G/DL and the “ALKALINE PHOSPHATASE” value [2] was 351.83 u/L. The “ASPARTATE AMINOTRANSFERASE” value [2] was 73.5 u/L, the “BLOOD UREA NITROGEN” value [2] was 17.83 mg/dL and the “CARBON DIOXIDE” value [2] was 24.67 mmol/L. For the same molecule, the CHLORIDE [2] was 100 MEQ/L, the CHOLESTEROL [2] was 67 mg/dL and the “CREATINE PHOSPHOKINASE” value [2] was 284 u/L. For the same molecule, the CREATININE [2] was 0.2 mg/dL, the GLUCOSE [2] was 152.33 mg/dL and the “LACTATE DEHYDROGENASE” value [2] was 108.67 u/L. For the same molecule, the LIPASE [2] was 8.17 u/L, the PHOSPHORUS [2] was 11.17 mg/dL and the POTASSIUM [2] was 6.14 MEQ/L. For the same molecule, the SODIUM [2] was 144.68 MEQ/L, the “TOTAL BILIRUBIN” value [2] was 0.22 mg/dL and the “TOTAL PROTEIN” value [2] was 6.08 G/DL. For the same molecule, the “URIC ACID” value [2] was 1.27 mg/dL, the “ABSOLUTE BASOPHIL” value [3] was 0 CELLS/uL and the “ABSOLUTE EOSINOPHIL” value [3] was 189.33 CELLS/uL. The “ABSOLUTE LYMPHOCYTE” value [3] was 10886.33 CELLS/uL, the “ABSOLUTE MONOCYTE” value [3] was 47.33 CELLS/uL and the “ABSOLUTE SEGMENTED NEUTROPHIL” value [3] was 1443.67 CELLS/uL. The BASOPHIL [3] was 0%, the EOSINOPHIL [3] was 1.33% and the “ERYTHROCYTE COUNT” value [3] was 5.55 x10E6/uL. For the same molecule, the HEMATOCRIT [3] was 35.67%, the HEMOGLOBIN [3] was 13.2 G/DL and the “LEUKOCYTE COUNT” value [3] was 12.57 x10E3/uL. For the same molecule, the LYMPHOCYTE [3] was 86.67%, the “MEAN CORPUSCULAR HEMOGLOBIN” value [3] was 23.77 pg and the “MEAN CORPUSCULAR HEMOGLOBIN CONCENTRATION” value [3] was 37 G/DL. The “MEAN CORPUSCULAR VOLUME” value [3] was 64.2 fL, the MONOCYTE [3] was 0.33% and the NEUTROPHIL [3] was 11.67%. The “NUCLEATED RED BLOOD CELLS” value [3] was 0 /100WBC, the “PLATELET COUNT” value [3] was 1296 x10E3/uL and the “ALANINE AMINOTRANSFERASE” value [3] was 52.67 u/L. The ALBUMIN [3] was 4.2 G/DL, the “ALKALINE PHOSPHATASE” value [3] was 382.67 u/L and the “ASPARTATE AMINOTRANSFERASE” value [3] was 73.67 u/L. The “BLOOD UREA NITROGEN” value [3] was 15 mg/dL, the “CARBON DIOXIDE” value [3] was 27 mmol/L and the CHLORIDE [3] was 99 MEQ/L. For the same molecule, the CHOLESTEROL [3] was 70.33 mg/dL, the “CREATINE PHOSPHOKINASE” value [3] was 215.33 u/L and the CREATININE [3] was 0.16 mg/dL. For the same molecule, the GLUCOSE [3] was 166.33 mg/dL, the “LACTATE DEHYDROGENASE” value [3] was 88 u/L and the LIPASE [3] was 8 u/L. For the same molecule, the PHOSPHORUS [3] was 12.23 mg/dL, the POTASSIUM [3] was 6.54 MEQ/L and the SODIUM [3] was 144.1 MEQ/L. The “TOTAL BILIRUBIN” value [3] was 0.27 mg/dL, the “TOTAL PROTEIN” value [3] was 5.93 G/DL and the “URIC ACID” value [3] was 1.97 mg/dL. For the same molecule, the “ABSOLUTE BASOPHIL” value [4] was 0 CELLS/uL, the “ABSOLUTE EOSINOPHIL” value [4] was 66.67 CELLS/uL and the “ABSOLUTE LYMPHOCYTE” value [4] was 12127.33 CELLS/uL. The “ABSOLUTE MONOCYTE” value [4] was 105.67 CELLS/uL, the “ABSOLUTE SEGMENTED NEUTROPHIL” value [4] was 1600.33 CELLS/uL and the BASOPHIL [4] was 0%. The EOSINOPHIL [4] was 0.67%, the “ERYTHROCYTE COUNT” value [4] was 5.76 x10E6/uL and the HEMATOCRIT [4] was 36.63%. For the same molecule, the HEMOGLOBIN [4] was 13.7 G/DL, the “LEUKOCYTE COUNT” value [4] was 13.9 x10E3/uL and the LYMPHOCYTE [4] was 88.33%. The “MEAN CORPUSCULAR HEMOGLOBIN” value [4] was 23.77 pg, the “MEAN CORPUSCULAR HEMOGLOBIN CONCENTRATION” value [4] was 37.4 G/DL and the “MEAN CORPUSCULAR VOLUME” value [4] was 63.6 fL. For the same molecule, the MONOCYTE [4] was 0.67%, the NEUTROPHIL [4] was 10.33% and the “NUCLEATED RED BLOOD CELLS” value [4] was 0 /100WBC. The “PLATELET COUNT” value [4] was 1337.67 x10E3/uL, the “ALANINE AMINOTRANSFERASE” value [4] was 44 u/L and the ALBUMIN [4] was 4.3 G/DL. For the same molecule, the “ALKALINE PHOSPHATASE” value [4] was 417.67 u/L, the “ASPARTATE AMINOTRANSFERASE” value [4] was 84.33 u/L and the “BLOOD UREA NITROGEN” value [4] was 17.33 mg/dL. The “CARBON DIOXIDE” value [4] was 25.67 mmol/L, the CHLORIDE [4] was 102.33 MEQ/L and the CHOLESTEROL [4] was 74.67 mg/dL. The “CREATINE PHOSPHOKINASE” value [4] was 260 u/L, the CREATININE [4] was 0.26 mg/dL and the GLUCOSE [4] was 167.33 mg/dL. The “LACTATE DEHYDROGENASE” value [4] was 187.67 u/L, the LIPASE [4] was 8.67 u/L and the PHOSPHORUS [4] was 11.83 mg/dL. For the same molecule, the POTASSIUM [4] was 6.55 MEQ/L, the SODIUM [4] was 145.07 MEQ/L and the “TOTAL BILIRUBIN” value [4] was 0.17 mg/dL. For the same molecule, the “TOTAL PROTEIN” value [4] was 6.2 G/DL and the “URIC ACID” value [4] was 1.8 mg/dL.
